Columns and labels:
NDST2 (ND activity) = molecular target: T1, NDST2 (ND activity) (Homo sapiens, UniProt P52849); test: Screening of ND activity inhibitors using the plate to which NAH-biotin was adhered via avidin (JM403 ELISA); assay type: biochemical; conditions: final concentration 100, 10 or 1 μg/ml; for function to inhibit ND activity (rate of change, FIG. 8): NDST enzyme liquid 80 times diluted, 37° C. 60 minutes; for ranking of ability to inhibit ND activity among NAH, HP, NSDS-HP and HSBK: FIG. 8
T1 construct: baculovirus gp67 signal peptide (39 amino acids) (N, cleaved yes); made in house; host or cells: Sf21 insect cells infected with recombinant baculovirus (virus stock made in Sf9)
T1 sequence (P52849 79-883): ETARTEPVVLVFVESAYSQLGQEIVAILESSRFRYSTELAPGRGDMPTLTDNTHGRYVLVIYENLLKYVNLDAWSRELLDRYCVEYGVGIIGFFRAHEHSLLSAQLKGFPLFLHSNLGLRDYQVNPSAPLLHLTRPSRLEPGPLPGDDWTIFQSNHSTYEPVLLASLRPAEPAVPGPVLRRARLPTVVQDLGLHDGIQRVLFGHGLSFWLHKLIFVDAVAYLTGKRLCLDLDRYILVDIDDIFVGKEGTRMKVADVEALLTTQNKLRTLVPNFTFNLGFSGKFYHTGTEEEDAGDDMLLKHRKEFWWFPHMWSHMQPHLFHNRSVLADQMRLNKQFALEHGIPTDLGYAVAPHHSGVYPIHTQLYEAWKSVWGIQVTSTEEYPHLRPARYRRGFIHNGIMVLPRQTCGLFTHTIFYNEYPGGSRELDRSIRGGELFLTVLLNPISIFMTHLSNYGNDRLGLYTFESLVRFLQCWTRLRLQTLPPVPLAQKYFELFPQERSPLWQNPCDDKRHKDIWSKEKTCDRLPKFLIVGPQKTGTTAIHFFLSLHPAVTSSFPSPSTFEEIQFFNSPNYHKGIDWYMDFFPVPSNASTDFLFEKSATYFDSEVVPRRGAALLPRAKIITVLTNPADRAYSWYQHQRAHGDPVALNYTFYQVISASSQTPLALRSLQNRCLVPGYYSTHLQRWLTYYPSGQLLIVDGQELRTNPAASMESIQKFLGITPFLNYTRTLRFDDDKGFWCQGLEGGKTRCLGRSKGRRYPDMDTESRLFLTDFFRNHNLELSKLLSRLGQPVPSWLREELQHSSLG
Protocol: Each of the following 6 substances to be tested was diluted to 200, 20 or 2 μg/ml using the enzyme reaction liquid 1. Quickly after addition of 25 μl of the solutions to each well of the solid phase (plate) produced in Example 9, 25 μl of an “NDST enzyme liquid diluted 40 times with the enzyme reaction liquid I” was added to each well (final concentration of each substance to be tested 100, 10 or 1 μg/ml, final dilution rate of the enzyme liquid 80 times).
Thereafter, the enzyme reaction was effected by standing still at 37° C. for 60 minutes. In this connection, the enzyme reaction liquid 1 alone was added to the wells to which the substances to be tested were not added.
After completion of the reaction, the wells were washed three times with T-TBS and 100 μl of a solution of the monoclonal antibody JM403 (Seikagaku Corporation) adjusted to 1 μg/ml with TBS was added to each well. Thereafter, the plate was allowed to stand still at ordinary temperature (15 to 25° C.) for 60 minutes to undergo the antigen-antibody reaction. After the reaction, the wells were washed three times with T-TBS, and 100 μl of the HRP-labeled goat anti-mouse immunoglobulin G+M antibody diluted 20000 times with TBS was added to each well. Thereafter, the plate was allowed to stand still at ordinary temperature for 60 minutes to undergo the antigen-antibody reaction.
After the reaction, this plate was washed three times with T-TBS, and 100 μl of the TMB solution was added to each well and allowed to undergo the reaction at ordinary temperature for 30 minutes to develop a color. Thereafter, the reaction was terminated by adding 100 μl of the reaction terminating liquid to each well, and then the absorbance was measured by the same method described in Example 5. Also, the rate of change (%) was calculated by the following calculation formula. Rate of change(%)=100×((the value of absorbance when each substance to be tested is not added)−(the value of absorbance when each substance to be tested at respective concentration is added))/(the value of absorbance when each substance to be tested is not added).
In this connection, since the monoclonal antibody JM403 binds to the GlcN residues in NAH (that is, de-N-acetylated GlcNAc residue), higher value of the detected absorbance means that the number of GlcN residues in NAH is larger (that is, the number of de-N-acetylated GlcNAc residues is larger), namely the ND activity is higher. On the contrary, lower value of the detected absorbance means that the number of GlcN residues in NAH is smaller (that is, the number of de-N-acetylated GlcNAc residues is smaller), namely the ND activity is low.
Additionally, when a substance to be tested inhibits ND activity, the aforementioned rate of change (%) becomes a positive number. Also, higher value of the rate of change means higher ability of the substance to be tested to inhibit ND.

[1] = tested on: monoclonal antibody F58-10E4; test: Inhibition method: monoclonal antibody F58-10E4 binding to HSBK-adhered plate in presence of N-sulfated heparosan; conditions: 20 μg/well; F58-10E4 1 μg/mL; lot as prepared
Protocol: A polysaccharide in which biotin is bound to the reducing end of HSBK was prepared using HSBK instead of NAH and in accordance with the method described in Example 1(3). Next, this was adhered to a plate in accordance with the method described in Example 9.
The monoclonal antibody F58-10E4 (final concentration: 1 μg/mL) and the 9 lots of N-sulfated heparosan (20 μg/well; a value corrected based on the uronic acid content obtained by the carbazole method) were added to the plate to which HSBK was adhered to effect the antigen-antibody reaction under the conditions described in Example 7, and the absorbance was measured by the method described in Example 7. This is a measurement by a so-called inhibition method. When concentration of the N-sulfated heparosan in the antigen-antibody reaction liquid is 0, substantially all of the monoclonal antibody F58-10E4 binds to the adhered HSBK and the detected absorbance becomes high.
By regarding the absorbance when concentration of the N-sulfated heparosan in the antigen-antibody reaction liquid is 0 as “inhibition rate 0%”, and the absorbance when excess concentration of N-sulfated heparosan is present in the antigen-antibody reaction liquid as “inhibition rate 100%”, the inhibition ratio was calculated on the 9 lots of N-sulfated heparosan. […]
The inhibition rates of these substances were also calculated in the same manner. […]

Row | Substance | function to inhibit ND activity (rate of change, FIG. 8) (NDST2 (ND activity)) | ranking of ability to inhibit ND activity among NAH, HP, NSDS-HP and HSBK (NDST2 (ND activity)) | Inhibition rate (%) No treatment [1] [%]
1 | Partially de-N-acetylated NAH [PDNAC-NAH] | hardly possessed of the function to inhibit ND activity | – | –
2 | Swine small intestine-derived HP | inhibit ND activity concentration-dependently | – | –
3 | N-acetyl heparosan [NAH] | inhibit ND activity concentration-dependently | lowest ability to inhibit ND activity | –
4 | Bovine kidney-derived HS [HSBK] | inhibit ND activity concentration-dependently | highest ability to inhibit ND activity | 99
5 | Cockscomb-derived hyaluronic acid [HA] | hardly possessed of the function to inhibit ND activity | – | –
6 | N-sulfated/completely de-O-sulfated HP [NSDS-HP] | inhibit ND activity concentration-dependently | – | –
